This experiment concerns up-regulation of ICAM-1 (CD54) by IFNγ in A549 lung epithelial cells. Nature of the experiment: A549 Epithelial Line Stimulated with IFNγ (ICAM-1 surface expression, FACS). The following applies: ICAM-1 expression by FACS, read-out: IC50, Example 43. The class given is cell-based, human. In outline:
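A549 cells pre-incubated 1 h with compound (30 μM to 14 nM, 5% FBS, 0.3% DMSO), then stimulated with IFNγ (75 ng/mL) for 24 h. Surface ICAM-1 stained with APC anti-CD54 and read by flow cytometry; geometric mean of live-gated events plotted against concentration for EC50.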
(A flow cytometer gives signals particle by particle.)

The mark [1] stands for this setting: A549 cells stimulated with IFNγ.

Read-outs that look alike come from different tables or passages of the source.

As for “N2-(3-Aminosulfonyl-4-methylphenyl)-5-fluoro-N4-[4-(2-pyridinyl)-3-fluoromethyleneoxyphenyl]-2,4-pyrimidinediamine [Compound I-172]”, for the setting “A549 epithelial line stimulated with IFNγ”, the IC50 turned out to be 38.7 µM.

In the case of “N2-[3-Aminosulfonyl-4-(4-methylpiperazine-1-yl)phenyl]-N4-(3-cyanomethylene-1H-indol-6-yl)-5-fluoro-2,4-pyrimidinediamine [IX-17]”, under setting [1], the IC50 amounted to 21.9 µM. On the same count and under the same terms, the value for “N2-[3-Aminosulfonyl-4-(4-methylpiperazine-1-yl)phenyl]-N4-(3-cyanomethylene-1H-indol-7-yl)-5-fluoro-2,4-pyrimidinediamine [IX-18]” was 55.2 µM.

What is called IC50 is the concentration at which inhibition is half-maximal.

These data come from patent US11827628B2, “Compositions and methods for inhibition of the JAK pathway” (Rigel Pharmaceuticals, Inc., priority 2005, dated 2023).
